According to publication PMC4883067 (Pharmacognosy Magazine, 2016):

Experiments:
rat brain MAO-B [1] = biological target: T1, rat brain MAO-B (Rattus norvegicus, UniProt P19643); assay: Inhibition of MAO-B activity in rat brain crude mitochondrial fraction; assay type: biochemical
T1 sequence (P19643 1-520): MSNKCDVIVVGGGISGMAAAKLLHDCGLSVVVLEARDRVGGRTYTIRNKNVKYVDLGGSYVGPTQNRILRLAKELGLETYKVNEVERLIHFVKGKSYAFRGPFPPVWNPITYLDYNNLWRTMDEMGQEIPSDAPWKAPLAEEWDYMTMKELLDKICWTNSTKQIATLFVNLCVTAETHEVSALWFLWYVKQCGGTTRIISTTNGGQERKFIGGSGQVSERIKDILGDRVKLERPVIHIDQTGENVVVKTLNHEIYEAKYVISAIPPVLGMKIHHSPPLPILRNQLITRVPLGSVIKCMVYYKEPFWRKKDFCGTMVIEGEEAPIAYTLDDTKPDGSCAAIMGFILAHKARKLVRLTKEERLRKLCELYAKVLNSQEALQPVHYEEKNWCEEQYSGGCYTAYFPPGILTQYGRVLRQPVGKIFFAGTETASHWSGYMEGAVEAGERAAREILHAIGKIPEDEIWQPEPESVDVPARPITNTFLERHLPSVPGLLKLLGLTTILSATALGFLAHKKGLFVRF

rat brain MAO-B [2] = biological target: T1, rat brain MAO-B; assay: Kinetics of monoamine oxidase inhibition; assay type: biochemical; conditions: for Mechanism of inhibition: MAO-B, substrate benzylamine, Lineweaver-Burk
[3] = cited from earlier work

Row | SMILES | IC50 (rat brain MAO-B [1]) [nM] | Mechanism of inhibition (rat brain MAO-B [2]) | pKa value [3] | Vmax (remained constant) (rat brain MAO-B [2]; ellagic acid, 200–600 μg/ml as printed, benzylamine 5-15 mM) [nM/min]
1 | COc1cc(C=CC(=O)CC(=O)C=Cc2ccc(O)c(OC)c2)ccc1O [Curcumin, 1,7-bis-(4-hydroxy-3-methoxyphenyl)-hepta-1,6-diene-3,5-dione] | 500 | noncompetitive | 8.54 | –
2 | O=c1oc2c(O)c(O)cc3c(=O)oc4c(O)c(O)cc1c4c23 [Ellagic acid] | 412 | Competitive | – | 8.40
